The text below walks through data of PMC8836143, “Primary Mode of Action of the Novel Sulfonamide Fungicide against Botrytis cinerea and Field Control Effect on Tomato Gray Mold” (International Journal of Molecular Sciences, 2022).

Converted amounts (≈) assume the structure as drawn.

Data set [1] concerns B. cinerea resistant to diethofencarb (HM-2). Briefly: greenhouse pot test on tomato, diethofencarb-resistant strain HM-2. The format is in vivo, Botrytis cinerea. The procedure: (§1) The B. cinerea strains, which had resistance to carbendazim (HM-1), diethofencarb (HM-2), and iprodione (HM-3) for greenhouse pot studies, were provided by the Institute of Vegetables and Flowers, Chinese Academy of Agricultural Sciences (Beijing, China).
(§2) The experiments were conducted in the greenhouse of the Institute of Vegetables and Flowers, Chinese Academy of Agricultural Sciences. The maximum and minimum temperatures of the greenhouse were 29 °C and 19 °C, respectively, and the average temperature was 24 °C. B. cinerea strains showing resistance to carbendazim, diethofencarb, and iprodione were cultivated on potato dextrose agar (PDA) plates for 4–5 d at room temperature. Tomato seeds (Ziyu) were sown in ceramic pots (300 mm in diameter) containing 0.6 kg of soil sterilized with formaldehyde (4–5 seeds for each pot). When plants were grown to the five-leaf stage, an aqueous solution of 25% L13 WP (at dilution multiples of 1000 and 2000 times) was sprayed preventatively on the plant surface. […] The severity of the disease was assessed according to a nine-grade classification at 7 d after inoculation, by which time the disease in the untreated control had fully developed.

Data set [2] has as its system B. cinerea resistant to carbendazim (HM-1). Briefly: greenhouse pot test on tomato, carbendazim-resistant strain HM-1. The format is in vivo, Botrytis cinerea. The procedure:
as §1, §2

Data set [3] deals with B. cinerea resistant to iprodione (HM-3). Briefly: greenhouse pot test on tomato, iprodione-resistant strain HM-3. The format is in vivo, Botrytis cinerea. How it is done: as §1, §2
Data set [4] has as its system B. cinerea hyphae. Briefly: SEM and TEM of mycelial morphology and ultrastructure. It is filed as cell-based, Botrytis cinerea. As to conditions: 3 days. How it is done:
B. cinerea mycelial tips (5 mm) from the margins of the actively growing colony on the PDA medium amended with 0, 50, and 100 μg/mL of L13 were cut down after being cultured for 3 days. Then the mycelial tips were treated with 4% glutaraldehyde at 4 °C, then rinsed with 0.1 M phosphate buffer (pH 7.3) and fixed with 1% w/v osmium tetraoxide solution. After being rinsed with 0.1 M phosphate buffer three times, the mycelium block was dehydrated using a series of acetone solutions in the order of concentration: 30%, 50%, 70%, 80%, 90%, and anhydrous acetone. The processes of drying at a critical point, mounting, and gold spraying were completed at last and examined in a scanning electron microscope (S-3400N, Hitachi, Nissei Sanyo, Tokyo, apan) with an accelerating voltage of 18–20 kV.
The mycelial blocks were prepared according to the method given in Section 2.3. After dehydrating and embedding in Epon 112, thin sections were cut and double-stained with uranyl acetate and lead citrate. The grids were examined with a JEOL-1230 (JEOL, Tokyo, Japan) transmission electron microscope.

For data set [5], the system named is B. cinerea mycelia. Briefly: mycelial electrolyte leakage (conductivity of mycelia suspension). It is filed as cell-based, Botrytis cinerea. The note with it: 50 μg/mL; for conductivity of mycelia suspension compared with control mycelia: all treatment times 0-100 h. The procedure:
Mycelial discs (5 mm in diameter) of B. cinerea grown on PDA plates were cut from the colony’s margins and placed in PDA liquid medium with 200 r/min shaking for 3 days. The mycelia in the culture medium were collected and washed three times by sterile distilled water and subsequently, filtered and weighed. A stock solution of L13 and commercial fungicide procymidone as a positive control were diluted with sterile distilled water to 50 μg/mL, respectively. After adding 1.0 g of fresh mycelia into different solutions mentioned above, the conductivities of the solutions were measured using the DDS-11C model conductivity detector at 0, 1, 3, 5, 24, 28, 40, 48, 52, 64, 68, 72, 76, 88, 92, and 100 h after treatment. The experiment was repeated twice with three replicates per treatment.

For data set [6], the system named is intact mycelia of B. cinerea. Briefly: mycelial respiration (oxygen consumption of intact mycelia). It is filed as cell-based, Botrytis cinerea. The note with it: 25 °C; for R1 (mycelial oxygen uptake post addition of fungicide): R0 173.51; for inhibition at 50 µg/mL / inhibition at 100 µg/mL: Botrytis cinerea, read-out: IR (inhibition of respiration). The procedure:
Mycelial plugs of B. cinerea from 3 days old colony margins were transferred to conical flasks containing 150 mL of PDA liquid medium for shake culture (25 °C, 150 r/min). After 5 days, mycelia were washed three times with 50 mM potassium phosphate buffer (pH 7.2) and resuspended in 0.1 M phosphate buffer (pH 7.2), containing 2% glucose to afford mycelial suspension at a concentration of 50 mg fresh weight of mycelia per milliliter. The mycelial suspension was treated with 50 and 100 μg/mL of L13 and famoxadone, respectively. All measurements were carried out at 25 ± 1 °C. The ratio of the mycelial oxygen consumption was tested by oxygraphy (DW1, Hansatech Instruments Ltd., England), and the inhibition of respiration was calculated using the following formula:IR = (R0 − R1)/R0 × 100(1)
IR: inhibition of respiration (%); R0, R1: the ratio of mycelial oxygen uptake pre and post addition of fungicides (nmol O2/min/mg mycelia).

In data set [7] the test system is B. cinerea on tomatoes. Briefly: field efficacy trials against tomato gray mold. It is filed as in vivo, Botrytis cinerea. As to conditions: Yuncheng city; 225 g ai ha^−1; over 2 years. How it is done:
The field efficacy trials of L13 against tomato gray mold were conducted in two locations of Yuncheng, Shanxi Province, and Gaocheng, Hebei Province. The experiments were conducted according to the National Agriculture Industry Standard of “Pesticide-guidelines for the field efficacy trials (I)-Fungicides against gray mold of vegetables” [38]. Tomato Jinpeng No. 1 was used as the experimental cultivar. There were six treatments in each trial, and the area of each plot was 5 × 3 m with four replications (24 plots). When tomato plants were grown to the five-leaf stage, an aqueous solution of L13 50% WP at a rate of 450 and 225 g ai ha^−1 was sprayed onto the plants using a hydraulic knapsack electric sprayer (CD-16B, Chaoda Instrument Co., Ltd., Taizhou, China) with a single cone nozzle operating at a typical working pressure 0.3 MPa. Iprodione 50% WP, or iprodione 25% SC at a rate of 225 and 562.5 g ai ha^−1 were used as positive controls. Three applications were conducted at an interval of 7 d. The disease was assessed according to a nine-grade classification 7 d after the last application.

For data set [8], the system named is Wistar rats. Briefly: acute oral toxicity. The format is in vivo. How it is done:
(§3) The acute oral and dermal toxicity test on Wistar rats, eye and skin irritation test on rabbits, and Ames mutagenicity test were commissioned by the Institute for the Control of Chemical Toxicity in Tianjin. The bone marrow cell micronucleus assay and testis chromosomal aberration test of mice were commissioned by Tianjin Center for Disease Control and Prevention. All the toxicological tests were carried out according to the Toxicological Test Methods for Pesticide Registration (GB 15670-1995).
(§4) Based on the preliminary experiment, Horn’s method was used to determine the acute oral toxicity of L13. The dosage applied for rats was 464, 1000, 2150, and 4640 mg/kg·BW. For the acute dermal toxicity test, the dosage applied for rats was 2000 mg/kg·BW. For the eye and skin irritation test, rabbits with bodyweight from 2.5 to 3.0 kg were used, and 0.1 and […] of L13 was applied to the eyes and skin, respectively. For the Ames mutagenicity test, 0.05–1.0 mg per dish of L13 was applied, and fenaminosulf (50 μg/dish), 2-aminofluorene (20 μg/dish), and 1,8-dihydroxyanthraquinone (50 μg/dish) were used as the positive controls. For the mouse bone marrow cell micronucleus assay, the dosages applied were 165, 82.5, 41.3, and 8.3 mg/kg·BW, and cyclophosphamide (60 mg/kg·BW) was used as a positive control. […]

In data set [9] the test system is rabbits. Briefly: eye irritation test. It is filed as in vivo. The procedure:
as §3, §4

Data set [10] deals with rabbits. Briefly: skin irritation test. It is filed as in vivo. How it is done: as §3, §4
Data set [11] is described as follows: teratogenesis test.
The nature of data set [12]: mutagenesis test. The procedure:
as §3, §4

Data set [13] is described as follows: carcinogenesis test.
Data set [14] concerns B. cinerea. More on the design: method as in PMID 18331796. As to conditions: cited from earlier work.
Data set [15] relates to intact mycelia of B. cinerea. Set-up: method as in earlier work. As to conditions: cited from earlier work.
Setting [16] is: dilution multiple 1000, 187.5 g.ai ha^−1.

In the case of `CCOc1ccc(NC(=O)OC(C)C)cc1OCC` [diethofencarb, reference compound], the “Control Effect” value in data set [1] (dilution multiple 1400, 267.9 g.ai ha^−1) was determined as 76.36%.

With `COC(=O)Nc1nc2ccccc2[nH]1` [carbendazim, reference compound], the “Control Effect” value in [2] (dilution multiple 500, 750 g.ai ha^−1) is 29.00%.

On to `O=C1CCCCC1S(=O)(=O)Nc1ccc(Cl)cc1C(F)(F)F` (stereo not drawn) [L13, N-(2-trifluoromethyl-4-chlorphenyl)-2-oxocyclohexyl sulfonamide], for which the results for the “Control Effect” value in data set [2] (setting [16]), in data set [1] (setting [16]) and in data set [3] (setting [16]) were 81.36%, 92.61% and 78.27%, respectively. Moreover, the entries for the “TEM ultrastructure of hyphae” value in data set [4] (PDA with 50 μg/mL) and in [4] (PDA with 100 μg/mL) were “cell wall exhibited a decomposition trend” and “cell wall decomposition”, respectively. In addition, the “electrolyte leakage compared with positive control” value in data set [5] was “more significant electrolyte leakage from hyphae than procymidone”. Besides, in data set [5], the “conductivity of mycelia suspension compared with control mycelia” value is on record as “greatly increased”. Further, the “R1 (mycelial oxygen uptake post addition of fungicide)” value in data set [6] (50 μg/mL) was found to be 169.93 nmol O2/g/min; in [6] (100 μg/mL) it was 143.48 nmol O2/g/min. Further, in [6] (50 μg/mL), the inhibition at 50 µg/mL is 2.15%. Moreover, in [6] (100 μg/mL), the inhibition at 100 µg/mL is 17.4%. Also, the “control effect against B. cinerea on tomatoes” value in data set [7] was 72–76%. Also, the “Acute oral LD50” value came to 2150 mg/kg·BW in data set [8] (female) and 1470 mg/kg·BW in [8] (male). Further, the Eye irritation entry in data set [9] was “No irritation”. For the same compound, the Skin irritation result in data set [10] is “No irritation”. The Teratogenesis entry in data set [11] is listed as “Negative”. Besides, in data set [12], the Mutagenesis entry is listed as “Negative”. Moreover, the Carcinogenesis result in data set [13] is reported as “Negative”. Further, the “EC50 against B. cinerea” value in [14] is 2.12 µg/mL (≈ 5.96 µM). In addition, the “content of DNA and polysaccharide in intact mycelia” value in data set [15] was “reduce the content of the DNA and polysaccharide”.

With `CC(C)NC(=O)N1CC(=O)N(c2cc(Cl)cc(Cl)c2)C1=O` [iprodione, reference compound], the “Control Effect” value in [3] (dilution multiple 1000, 375 g.ai ha^−1) was 2.36%.

On to `C[C@@]1(c2ccc(Oc3ccccc3)cc2)OC(=O)N(Nc2ccccc2)C1=O` (racemic) [Famoxadone, famoxadone, reference compound], for which, in data set [6] (50 μg/mL), the “R1 (mycelial oxygen uptake post addition of fungicide)” value is on record as 115.99 nmol O2/g/min and the inhibition at 50 µg/mL is 33.2%. Besides, in [6] (100 μg/mL), the “R1 (mycelial oxygen uptake post addition of fungicide)” value came out at 68.79 nmol O2/g/min and the inhibition at 100 µg/mL turned out to be 60.4%.

With `CC12CC1(C)C(=O)N(c1cc(Cl)cc(Cl)c1)C2=O` (stereo not drawn) [procymidone, reference compound], in [5], the “conductivity of mycelia suspension compared with control mycelia” value is reported as “greatly increased”. In addition, the “EC50 against B. cinerea” value in data set [14] was 2.45 µg/mL (≈ 8.62 µM).
